pIC50: −log10 of the molar value. Each block holds one compound with its values, some of them ahead of it.
Legend:
[1] = tested on: malonyl-CoA levels in liver; test: Acute in vivo assessment of ACC inhibition: malonyl-CoA levels in liver tissue; parameters: species or system male Sprague-Dawley Rats; details: relative to chow-fed vehicle control group, % decrease +/- SEM
Protocol: (§1) The ACC inhibitory activity of the compound of the present invention can be confirmed in vivo by evaluation of their ability to reduce malonyl-CoA levels in liver and muscle tissue from treated animals.
(§2) Measurement of malonyl-CoA production inhibition in experimental animals. In this method, male Sprague-Dawley Rats, maintained on standard chow and water ad libitum (225-275 g), were randomized prior to the study. Animals were either fed, or fasted for 18 hours prior to the beginning of the experiment. Two hours into the light cycle the animals were orally dosed with a volume of 5 mL/kg, (0.5% methyl cellulose; vehicle) or with the appropriate compound (prepared in vehicle). Fed vehicle controls were included to determine baseline tissue malonyl-CoA levels while fasted animals were included to determine the effect fasting had on malonyl-CoA levels. One hour after compound administration the animals were asphyxiated with CO2 and the tissues were removed. Specifically, blood was collected by cardiac puncture and placed into BD Microtainer tubes containing EDTA (BD Biosciences, NJ), mixed, and placed on ice. Plasma was used to determine drug exposure. Liver and quadriceps were removed, immediately freeze-clamped, wrapped in foil and stored in liquid nitrogen.
(§3) Tissues were pulverized under liquid N2 to ensure uniformity in sampling. Malonyl-CoA was extracted from the tissue (150-200 mg) with 5 volumes 10% […] in Lysing Matrix A (MP Biomedicals, PN 6910) in a FastPrep FP120 (Thermo Scientific, speed=5.5; for 45 seconds). The supernatant containing malonyl-CoA was removed from the cell debris after centrifugation at 15000×g for 30 minutes (Eppendorf Centrifuge 5402). Samples were stably frozen at −80 C until analysis is completed.
(§4) Analysis of malonyl CoA levels in liver and muscle tissue can be evaluated using the following methodology.
(§5) The method utilizes the following materials: Malonyl-CoA tetralithium salt and malonyl-^13C3-CoA trilithium salt which were purchased from Isotec (Miamisburg, Ohio, USA), sodium perchlorate (Sigma, cat no. 410241), trichloroacetic acid (ACROS, cat no. 42145), phosphoric acid (J. T. Baker, cat no. 0260-01), ammonium formate (Fluke, cat no. 17843), methanol (HPLC grade, J. T. Baker, cat no. 9093-33), and water (HPLC grade, J. T. Baker, 4218-03) were used to make the necessary mobile phases. Strata-X on-line solid phase extraction columns, 25 μm, 20 mm×2.0 mm I.D (cat no. 00M-S033-B0-CB) were obtained from Phenomenex (Torrance, Calif., USA). SunFire C18 reversed-phase columns, 3.5 μm, 100 mm×3.0 mm I.D. (cat no. 186002543) were purchased from Waters Corporation (Milford, Mass., USA).
(§6) This method may be performed utilizing the following equipment. Two-dimensional chromatography using an Agilent 1100 binary pump, an Agilent 1100 quaternary pump and two Valco Cheminert 6-port two position valves. Samples were introduced via a LEAP HTC PAL auto sampler with Peltier cooled stack maintained at 10° C. and a 20 μL sampling loop. The needle wash solutions for the autosampler are 10% trichloroacetic acid in water (w/v) for Wash 1 and 90:10 methanol:water for Wash 2. The analytical column (Sunfire) was maintained at 35° C. using a MicroTech Scientific Micro-LC Column Oven. The eluant was analyzed on an ABI Sciex API3000 triple quadrupole mass spectrometer with Turbo Ion Spray.
(§7) Two-dimensional chromatography was performed in parallel using distinct gradient elution conditions for on-line solid phase extraction and reversed-phase chromatography. The general design of the method was such that the first dimension was utilized for sample clean-up and capture of the analyte of interest followed by a brief coupling of both dimensions for elution from the first dimension onto the second dimension. The dimensions were subsequently uncoupled allowing for gradient elution of the analyte from the second dimension for quantification while simultaneously preparing the first dimension for the next sample in the sequence. […]

[2] = tested on: malonyl-CoA levels in muscle tissue; test: Acute in vivo assessment of ACC inhibition: malonyl-CoA levels in muscle tissue (quadriceps); parameters: species or system male Sprague-Dawley Rats; details: relative to chow-fed vehicle control group, % decrease +/- SEM
Protocol: as §1, §2, §3, §4, §5, §6, §7

recombinant human ACC2 = target: T1, recombinant human ACC2 (Homo sapiens, UniProt O00763); test: Measurement of human ACC2 inhibition (recombinant hACC2 Transcreener ADP detection FP assay); format: biochemical; details: recombinant hACC2 transcreener assay; read-out: rhACC2 IC50
T1 construct: a full length Cytomax clone of ACC2 was purchased from Cambridge Bioscience Limited; made in house; host or cells: CHO cells (tetracycline induction, pcDNA5 FRT TO-TOPO); purified on a Softlink Soft Release Avidin column
Procedure, shortened: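 Purified hACC2 from tetracycline-induced CHO cells (avidin-column eluate) was run in 50 mM HEPES pH7.5, 5 mM MgCl2, 5 mM citrate, 2 mM DTT, 0.5 mg/mL BSA with 30 μM acetyl-CoA, 50 μM ATP and 8 mM KHCO3. Reaction lasted 1 hour at room temperature; ADP was detected by Transcreener FP after another 1 hour.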

T1 sequence (O00763 whole entry): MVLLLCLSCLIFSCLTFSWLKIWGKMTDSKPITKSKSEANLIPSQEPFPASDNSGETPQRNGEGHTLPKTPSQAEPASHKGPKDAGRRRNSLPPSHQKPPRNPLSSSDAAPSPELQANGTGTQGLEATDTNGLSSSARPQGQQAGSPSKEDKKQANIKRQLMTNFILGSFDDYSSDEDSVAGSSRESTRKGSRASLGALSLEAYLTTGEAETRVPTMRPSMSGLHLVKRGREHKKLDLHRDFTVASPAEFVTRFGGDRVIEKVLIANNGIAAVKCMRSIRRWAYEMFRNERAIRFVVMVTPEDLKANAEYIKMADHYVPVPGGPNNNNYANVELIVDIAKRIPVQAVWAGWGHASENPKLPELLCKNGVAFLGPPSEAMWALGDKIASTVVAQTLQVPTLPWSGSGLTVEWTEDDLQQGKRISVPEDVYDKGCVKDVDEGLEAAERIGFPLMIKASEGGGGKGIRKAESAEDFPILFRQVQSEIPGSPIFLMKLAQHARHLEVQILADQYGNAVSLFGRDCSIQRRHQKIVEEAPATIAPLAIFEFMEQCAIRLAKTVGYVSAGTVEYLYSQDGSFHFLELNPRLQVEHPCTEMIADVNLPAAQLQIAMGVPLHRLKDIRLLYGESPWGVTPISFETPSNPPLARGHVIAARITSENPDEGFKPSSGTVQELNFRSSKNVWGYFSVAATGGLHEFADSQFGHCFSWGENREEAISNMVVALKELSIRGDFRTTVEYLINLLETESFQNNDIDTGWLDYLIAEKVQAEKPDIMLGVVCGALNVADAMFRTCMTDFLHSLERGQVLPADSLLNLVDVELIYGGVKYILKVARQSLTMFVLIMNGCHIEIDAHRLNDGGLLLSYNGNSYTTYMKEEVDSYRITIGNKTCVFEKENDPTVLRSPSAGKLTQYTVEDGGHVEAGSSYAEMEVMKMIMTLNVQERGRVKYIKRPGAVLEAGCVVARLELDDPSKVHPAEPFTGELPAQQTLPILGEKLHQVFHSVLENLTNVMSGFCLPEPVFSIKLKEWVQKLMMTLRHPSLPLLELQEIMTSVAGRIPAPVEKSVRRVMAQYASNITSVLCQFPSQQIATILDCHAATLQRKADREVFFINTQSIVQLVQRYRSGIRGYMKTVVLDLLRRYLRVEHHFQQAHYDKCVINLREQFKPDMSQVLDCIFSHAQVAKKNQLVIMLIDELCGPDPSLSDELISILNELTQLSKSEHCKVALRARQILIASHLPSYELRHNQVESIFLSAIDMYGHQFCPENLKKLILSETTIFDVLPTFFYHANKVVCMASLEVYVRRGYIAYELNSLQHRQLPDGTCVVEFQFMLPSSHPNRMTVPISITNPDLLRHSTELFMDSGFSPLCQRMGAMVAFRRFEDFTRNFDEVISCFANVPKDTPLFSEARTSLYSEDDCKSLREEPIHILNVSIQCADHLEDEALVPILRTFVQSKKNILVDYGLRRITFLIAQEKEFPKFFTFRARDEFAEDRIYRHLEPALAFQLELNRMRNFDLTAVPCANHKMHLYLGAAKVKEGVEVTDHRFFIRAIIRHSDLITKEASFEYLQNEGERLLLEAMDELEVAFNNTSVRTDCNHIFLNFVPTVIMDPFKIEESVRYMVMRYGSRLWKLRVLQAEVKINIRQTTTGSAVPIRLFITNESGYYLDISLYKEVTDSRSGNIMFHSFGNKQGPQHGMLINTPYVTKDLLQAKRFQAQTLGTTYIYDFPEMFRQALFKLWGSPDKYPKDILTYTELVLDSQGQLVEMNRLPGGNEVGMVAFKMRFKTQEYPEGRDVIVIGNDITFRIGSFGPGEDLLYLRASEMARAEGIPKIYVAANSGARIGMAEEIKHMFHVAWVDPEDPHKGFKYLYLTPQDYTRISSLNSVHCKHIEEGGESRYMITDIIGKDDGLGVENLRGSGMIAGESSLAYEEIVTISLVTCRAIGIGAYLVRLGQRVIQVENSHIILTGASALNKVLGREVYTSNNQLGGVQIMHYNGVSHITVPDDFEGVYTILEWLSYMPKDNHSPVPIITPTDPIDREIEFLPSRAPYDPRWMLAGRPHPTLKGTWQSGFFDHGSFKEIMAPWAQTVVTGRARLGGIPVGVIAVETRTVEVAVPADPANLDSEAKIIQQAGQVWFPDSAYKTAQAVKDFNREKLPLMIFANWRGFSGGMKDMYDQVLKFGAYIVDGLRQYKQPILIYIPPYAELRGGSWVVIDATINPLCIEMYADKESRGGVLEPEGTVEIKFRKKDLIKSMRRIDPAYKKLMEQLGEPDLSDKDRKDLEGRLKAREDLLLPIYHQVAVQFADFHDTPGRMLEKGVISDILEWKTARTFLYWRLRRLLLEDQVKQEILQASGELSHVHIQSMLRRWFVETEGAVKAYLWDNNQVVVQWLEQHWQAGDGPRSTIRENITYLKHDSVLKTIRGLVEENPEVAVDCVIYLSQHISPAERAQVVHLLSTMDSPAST

pIC50 (recombinant human ACC2): 7.96
Structure (SMILES): CCn1nc2c(c1C)OC1(CCN(C(=O)c3cc(C)c4[nH]nc(C)c4c3)CC1)CC2=O [1.001]
Percent decrease in Liver Malonyl-CoA ([1]; dose 1 mg/kg): 28.29 (8.40) % | Percent decrease in Liver Malonyl-CoA ([1]; dose 3 mg/kg): 30.37 (11.50) % | Percent decrease in Liver Malonyl-CoA ([1]; dose 10 mg/kg): 45.45 (3.51) % | Percent decrease in Liver Malonyl-CoA ([1]; dose 30 mg/kg): 54.31 (7.63) % | Percent decrease in Muscle Malonyl-CoA (quadriceps) ([2]; dose 1 mg/kg): 5.69 (8.73) % | Percent decrease in Muscle Malonyl-CoA (quadriceps) ([2]; dose 3 mg/kg): 2.90 (4.29) % | Percent decrease in Muscle Malonyl-CoA (quadriceps) ([2]; dose 10 mg/kg): 22.83 (5.72) % | Percent decrease in Muscle Malonyl-CoA (quadriceps) ([2]; dose 30 mg/kg): 48.03 (2.63) %

pIC50 (recombinant human ACC2): 7.96
Structure (SMILES): CCn1cc2c(n1)C(=O)CC1(CCN(C(=O)c3cc(C)c4[nH]nc(C)c4c3)CC1)O2 [1.003]
Percent decrease in Liver Malonyl-CoA ([1]; dose 1 mg/kg): 31.45 (4.12) % | Percent decrease in Liver Malonyl-CoA ([1]; dose 3 mg/kg): 47.61 (4.70) % | Percent decrease in Liver Malonyl-CoA ([1]; dose 10 mg/kg): 67.40 (5.67) % | Percent decrease in Liver Malonyl-CoA ([1]; dose 30 mg/kg): 70.47 (2.48) % | Percent decrease in Muscle Malonyl-CoA (quadriceps) ([2]; dose 1 mg/kg): −3.72 (8.87) % | Percent decrease in Muscle Malonyl-CoA (quadriceps) ([2]; dose 3 mg/kg): 21.23 (8.81) % | Percent decrease in Muscle Malonyl-CoA (quadriceps) ([2]; dose 10 mg/kg): 33.30 (4.83) % | Percent decrease in Muscle Malonyl-CoA (quadriceps) ([2]; dose 30 mg/kg): 48.81 (3.51) %

pIC50 (recombinant human ACC2): 8.70
Structure (SMILES): Cc1n[nH]c2c(C)cc(C(=O)N3CCC4(CC3)CC(=O)c3nn(C(C)(C)C)cc3O4)cc12 [1.012]
Percent decrease in Liver Malonyl-CoA ([1]; dose 1 mg/kg): 40.32 (6.24) % | Percent decrease in Liver Malonyl-CoA ([1]; dose 3 mg/kg): 54.87 (3.22) % | Percent decrease in Liver Malonyl-CoA ([1]; dose 10 mg/kg): 75.72 (2.47) % | Percent decrease in Liver Malonyl-CoA ([1]; dose 30 mg/kg): 86.52 (1.49) % | Percent decrease in Muscle Malonyl-CoA (quadriceps) ([2]; dose 1 mg/kg): 31.53 (3.58) % | Percent decrease in Muscle Malonyl-CoA (quadriceps) ([2]; dose 3 mg/kg): 43.01 (4.24) % | Percent decrease in Muscle Malonyl-CoA (quadriceps) ([2]; dose 10 mg/kg): 59.48 (5.28) % | Percent decrease in Muscle Malonyl-CoA (quadriceps) ([2]; dose 30 mg/kg): 71.08 (2.18) %

pIC50 (recombinant human ACC2): 8.40
Structure (SMILES): Cc1cc(C(=O)N2CCC3(CC2)CC(=O)c2nn(C(C)(C)C)cc2O3)cc2cn[nH]c12 [1.042]
Percent decrease in Liver Malonyl-CoA ([1]; dose 1 mg/kg): 41.87 (2.70) % | Percent decrease in Liver Malonyl-CoA ([1]; dose 3 mg/kg): 48.07 (8.08) % | Percent decrease in Liver Malonyl-CoA ([1]; dose 10 mg/kg): 71.81 (2.36) % | Percent decrease in Liver Malonyl-CoA ([1]; dose 30 mg/kg): 86.50 (0.72) % | Percent decrease in Muscle Malonyl-CoA (quadriceps) ([2]; dose 1 mg/kg): 29.90 (5.21) % | Percent decrease in Muscle Malonyl-CoA (quadriceps) ([2]; dose 3 mg/kg): 27.60 (5.87) % | Percent decrease in Muscle Malonyl-CoA (quadriceps) ([2]; dose 10 mg/kg): 61.60 (5.38) % | Percent decrease in Muscle Malonyl-CoA (quadriceps) ([2]; dose 30 mg/kg): 74.70 (1.37) %

pIC50 (recombinant human ACC2): 6.55
Structure (SMILES): CCn1nc2c(c1C)OC1(CCN(C(=O)c3ccc4occc4c3)CC1)CC2=O [17.002]

pIC50 (recombinant human ACC2): 8.52
Structure (SMILES): Cn1ccc2ccc(C(=O)N3CCC4(CC3)CC(=O)c3nn(C(C)(C)C)cc3O4)cc21 [18.001]

pIC50 (recombinant human ACC2): 7.48
Structure (SMILES): CCn1nc2c(c1C)OC1(CCN(C(=O)c3ccc4ccn(C)c4c3)CC1)CC2=O [18.002]

pIC50 (recombinant human ACC2): 8.05
Structure (SMILES): CC(C)(C)n1cc2c(n1)C(=O)CC1(CCN(C(=O)c3ccc4c(=O)[nH]ccc4c3)CC1)O2 [19.001]

pIC50 (recombinant human ACC2): 7.55
Structure (SMILES): CC(C)(C)n1cc2c(n1)C(=O)CC1(CCN(C(=O)c3ccc4[nH]c(=O)oc4c3)CC1)O2 [20.001]

pIC50 (recombinant human ACC2): 7.80
Structure (SMILES): CC(C)(C)n1cc2c(n1)C(=O)CC1(CCN(C(=O)c3ccc4cc[nH]c(=O)c4c3)CC1)O2 [21.001]

pIC50 (recombinant human ACC2): < 6.00
Structure (SMILES): CC(C)n1cc2c(n1)C(=O)CC1(CCN(C(=O)c3ccc4oncc4c3)CC1)O2 [22.001]

pIC50 (recombinant human ACC2): 6.29
Structure (SMILES): CC(C)(C)n1cc2c(n1)C(=O)CC1(CCN(C(=O)c3ccc4oncc4c3)CC1)O2 [22.002]

pIC50 (recombinant human ACC2): < 6.00
Structure (SMILES): CCn1nc2c(c1C)OC1(CCN(C(=O)c3ccc4oncc4c3)CC1)CC2=O [22.003]

pIC50 (recombinant human ACC2): 6.23
Structure (SMILES): Cc1noc2cc(C(=O)N3CCC4(CC3)CC(=O)c3nn(C(C)C)cc3O4)ccc12 [23.001]

pIC50 (recombinant human ACC2): 7.26
Structure (SMILES): Cc1noc2cc(C(=O)N3CCC4(CC3)CC(=O)c3nn(C(C)(C)C)cc3O4)ccc12 [23.002]

pIC50 (recombinant human ACC2): 6.47
Structure (SMILES): CCn1nc2c(c1C)OC1(CCN(C(=O)c3ccc4c(C)noc4c3)CC1)CC2=O [23.003]

pIC50 (recombinant human ACC2): < 6.00
Structure (SMILES): CC(C)n1cc2c(n1)C(=O)CC1(CCN(C(=O)c3ccc4cnoc4c3)CC1)O2 [23.004]

pIC50 (recombinant human ACC2): 6.80
Structure (SMILES): CC(C)(C)n1cc2c(n1)C(=O)CC1(CCN(C(=O)c3ccc4cnoc4c3)CC1)O2 [23.005]

pIC50 (recombinant human ACC2): 7.64
Structure (SMILES): CC(C)(C)n1cc2c(n1)C(=O)CC1(CCN(C(=O)c3ccc4cnsc4c3)CC1)O2 [24.001]

pIC50 (recombinant human ACC2): 6.70
Structure (SMILES): CC(C)n1cc2c(n1)C(=O)CC1(CCN(C(=O)c3ccc4cnsc4c3)CC1)O2 [24.002]

pIC50 (recombinant human ACC2): 6.39
Structure (SMILES): CCn1nc2c(c1C)OC1(CCN(C(=O)c3ccc4cnsc4c3)CC1)CC2=O [24.003]

pIC50 (recombinant human ACC2): 6.91
Structure (SMILES): CCn1nc2c(c1C)OC1(CCN(C(=O)c3ccc4nn(C)cc4c3)CC1)CC2=O [25.004]

pIC50 (recombinant human ACC2): 5.81
Structure (SMILES): Cc1c2c(nn1C)C(=O)CC1(CCN(C(=O)c3ccc4nn(C)cc4c3)CC1)O2 [25.005]

Reference: patent US8318762B2, “Pyrazolospiroketone acetyl-CoA carboxylase inhibitors” (Pfizer Inc., priority 2008, dated 2012)
